Source: patent publication US20160250221A1, “INHIBITORS OF FAPP2 AND USES THEREOF” (FONDAZIONE TELETHON, priority 2013, published 2016)
“Also recorded” adds a separate entry of the source.

Experiments:
HeLa cells = assay: GSL synthesis by 3H-sphingosine metabolic labelling; assay type: cell-based
[1] = test system: 3XHA-Gb3S and 3XHA-GM3S distribution; assay: Immunofluorescence localization of HA-GM3S and HA-Gb3S; assay type: cell-based; details: BFA 5 μg/ml 30 min
Description: All immunofluorescence experiments were performed as described previously^1,14. Images are confocal optical slices obtained using an LSM 710 (Zeiss) confocal microscope. Colocalization analysis was performed as described in^14 or by using an object-based colocalization method included in the JACoP v2.0 application for ImageJ^16. In brief, individual mini-stacks in nocodazole-treated cells were considered as objects, whose mass-center position was calculated after segmentation, the perfect coincidence of mass-center positions for two distinct labelling (i.e. Gb3S/TGN46, or GM3S/TGN46) in a single ministack was considered as a positive colocalization event.

FAPP2-HIS-SUMO-C-212 = target: T1, FAPP2-HIS-SUMO-C-212 (Homo sapiens, UniProt Q96JA3); assay: FRET GlcCer transfer assay with FAPP2-C212 (384-well); assay type: biochemical; details: for inhibition of FAPP2 transfer activity: 50 uM compound
T1 construct: the recombinant FAPP2 protein is FAPP2-GLTP-C212 or FAPP2 Full-Length (FL)
T1 sequence (Q96JA3 310-519 limits assumed): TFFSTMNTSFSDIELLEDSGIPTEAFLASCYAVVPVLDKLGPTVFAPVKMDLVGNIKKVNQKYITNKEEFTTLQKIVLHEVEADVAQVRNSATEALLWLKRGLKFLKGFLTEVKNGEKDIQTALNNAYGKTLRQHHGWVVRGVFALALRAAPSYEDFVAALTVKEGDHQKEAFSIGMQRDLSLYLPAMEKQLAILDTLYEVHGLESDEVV
Description: (§1) FAPP2 transfer activity has been evaluated using Fluorescence Resonance Energy Transfer. The FRET assay involves mixing of acceptor vesicles (formed by sonication of 1,2-dioleoyl-sn-glycero-3-phosphocholine (DOPC) suspended in buffer) with donor vesicles containing TopFLUOR-labeled GlcCer (1 mole %) and Di1C18 used as quencher (3 mole %), and recombinant FAPP2 protein (0.5 uM). Recovery of emission intensity at 520 nm (excitation at 485 nm) occurs during FAPP2-mediated transfer of GlcosylCeramide from quenched donor vesicles to unquenched acceptor vesicles. The assay has been performed using FAPP2-GLTP-C212 or FAPP2 Full-Length (FL). In order to conduct the high throughput inhibitor screen, the transfer activity assay was adapted to a microplate format (384 well plate) and read using Synergy Neo HTS Multi-Mode Microplate Reader. First, mixture containing 30 ul of acceptor small unilamellar vesicles, FAPP2 transport protein, and drug in buffer was added to each well in triplicate and read for 1 min to calculate the fluorescence baseline. Then 30 ul donor vesicles were added to each well and read for 15 or 30 mins. Since the increase in fluorescence emission occurs exclusively in presence of FAPP2 transport, the inhibition rate of each compound is evaluated by its ability to decrease the fluorescence emission.

FAPP2-FL-SUMO = target: T2, FAPP2-FL-SUMO (Homo sapiens, UniProt Q96JA3); assay: FRET-based GlcCer transfer assay, Example 8 (96-well, full-length FAPP2); assay type: biochemical; details: for competition with the GlcCer transfer activity of FAPP2: final concentration 10 uM
T2 construct: FAPP2-FL-SUMO (recombinant FAPP2 full length protein tagged with small ubiquitin-related modifier); made in house; host or cells: Rosetta cells (E. coli, own knowledge)
T2 sequence (Q96JA3 1-519): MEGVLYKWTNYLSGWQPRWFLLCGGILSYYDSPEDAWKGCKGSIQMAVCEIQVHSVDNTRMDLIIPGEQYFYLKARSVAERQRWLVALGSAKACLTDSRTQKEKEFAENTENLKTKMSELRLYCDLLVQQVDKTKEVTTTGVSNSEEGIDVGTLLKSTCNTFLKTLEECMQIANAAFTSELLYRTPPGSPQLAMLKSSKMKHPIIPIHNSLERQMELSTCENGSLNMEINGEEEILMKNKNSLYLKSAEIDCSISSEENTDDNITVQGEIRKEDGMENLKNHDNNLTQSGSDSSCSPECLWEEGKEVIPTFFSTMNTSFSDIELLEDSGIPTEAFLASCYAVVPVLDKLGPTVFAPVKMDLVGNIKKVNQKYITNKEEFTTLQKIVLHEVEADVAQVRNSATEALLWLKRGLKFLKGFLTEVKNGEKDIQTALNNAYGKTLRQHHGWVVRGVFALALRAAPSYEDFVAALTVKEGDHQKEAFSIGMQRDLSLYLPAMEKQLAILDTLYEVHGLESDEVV
Description: Specifically, acceptor vesicles (formed by sonication of 1,2-dioleoyl-sn-glycero-3-phosphocholine (DOPC) were suspended in 10 mM NaH2PO4 buffer, pH 7.4, containing 1 mM dithiothreitol and 1 mM EDTA) and were incubated with donor vesicles containing BODIPY-labeled GlcCer (1 or 2 mole %, as indicated) and Di1C18 used as quencher (3 mole %), and recombinant FAPP2 protein (at the indicated concentrations).
Recovery of emission intensity at 520 nm (excitation at 485 nm) occurred during protein-mediated transfer of GlcCer from quenched donor vesicles to unquenched acceptor vesicles.
Phlorizin and Dapagliflozin were resuspended in DMSO (100 mM). The assay was conducted at four different concentrations (1 mM, 500 uM, 200 uM, 100 uM). Both FAPP2 WT and FAPP2 W407A were used to highlight possible non-specific effects of the drugs on fluorescence emission. First, mixture that contained FAPP2, acceptor small unilamellar vesicles and drug in buffer were added to 96 well plates, the plate was immediately loaded into the plate reader. Following 2 sec of shaking, the fluorescence emission @520 nm (excitation 485 nm) was measured at 10 sec intervals for 5 mins to calculate the baseline fluorescence. Then, donor vesicles were added to each well and read again for the indicated time. The experiments were repeated at least 3 times and each measurement performed in triplicate.
To screen and identify small molecules for drug development for Fabry disease treatment, a miniaturized FRET-based in vitro screening assay was developed to screen for small molecules that can inhibit FAPP2. The miniaturized FRET-based in vitro screening assay tests the ability of FAPP2 to transfer GlcCer from donor to acceptor and identifies small molecules able to inhibit the transfer activity of FAPP2. The flFAPP2 was produced as Sumo-fusion protein and assayed in Rosetta cells.

FAPP2-FL-SUMO-HIS = target: T3, FAPP2-FL-SUMO-HIS (Homo sapiens, UniProt Q96JA3); assay: FRET GlcCer transfer assay with full-length FAPP2 (Example 9); assay type: biochemical; details: 50 uM compound; FAPP2-FL-SUMO-HIS at 0.5 uM; measured for 15 mins
T3 construct: The assay has been performed using FAPP2-GLTP-C212 or FAPP2 Full-Length (FL); made in house; host or cells: Rosetta cells (E. coli, own knowledge)
T3 sequence (Q96JA3 1-519): T2 sequence (Q96JA3 1-519)
Description: as §1

[2] = test system: ts045 VSV-G (VSVG) transport; assay type: cell-based; details: dicoumarol 200 μM
[3] = FAPP2-C212 at 0.5 uM, measured for 30 mins

C[C@H]1CCC/C=C/[C@@H]2C[C@H](O)C[C@H]2[C@H](O)/C=C/C(=O)O1 [BFA, Brefeldin A]
Gb3 synthesis (HeLa cells; BFA 5 μg/mL): decreased | GM3 synthesis (HeLa cells; BFA 5 μg/mL, parental cells): but not that of GM3 | GM3 synthesis (HeLa cells; HeLa cells overexpressing GM3S (HeLa-GM3S), BFA 5 μg/mL): became sensitive | redistribution of GM3S to the ER [1]: redistributed

CCc1oc2ccccc2c1C(=O)c1cc(Br)c(O)c(Br)c1 [Benzbromarone]
ranking as FAPP2 inhibitor in vitro (FAPP2-HIS-SUMO-C-212): one of the most potent FAPP2 inhibitors | inhibition of FAPP2 transfer activity (FAPP2-HIS-SUMO-C-212; [3]): 80%

CCCCCCCCCCCCC/C=C/[C@@H](O)[C@H](COC1OC(CO)C(O)C(O)C1O)NC(=O)CCCCCCC (some centres unmarked) [C8-GlcCer]
competition with the GlcCer transfer activity of FAPP2 (FAPP2-FL-SUMO): able to inhibit transfer by competition | competition with the GlcCer transfer activity of FAPP2 (FAPP2-FL-SUMO; listed as C8-G1Cer): competes

CC(C)=CCC/C(C)=C/CC/C(C)=C/Cc1c(O)cc(C)c(C(=O)O)c1O [Grifolic Acid]
ranking as FAPP2 inhibitor in vitro (FAPP2-HIS-SUMO-C-212): most active FAPP2 inhibitor in vitro | effect on FAPP2-mediated GlcCer transfer (FAPP2-HIS-SUMO-C-212; 50 uM, FAPP2-C212 at 0.5 uM, measured for 30 mins): significantly reduced | effect on FAPP2-mediated GlcCer transfer (FAPP2-HIS-SUMO-C-212; 100 uM, FAPP2-C212 at 0.5 uM, measured for 30 mins): significantly reduced

O=C(O)Cn1nnc(-c2cc(N3CCC(Oc4cc(F)ccc4Br)CC3)no2)n1 [MK-8245]
inhibition of FAPP2 transfer activity (FAPP2-FL-SUMO-HIS): 40%

O=C(CCc1ccc(O)cc1)c1c(O)cc(O)cc1O[C@@H]1O[C@H](CO)[C@@H](O)[C@H](O)[C@H]1O [Phlorizin]
inhibition of GlcCer transfer activity of FAPP2 (FAPP2-FL-SUMO; four drug concentrations (100 uM, 200 uM, 500 uM, 1 mM)): can inhibit; also recorded: inhibits the GlcCer transfer

O=C(Nc1cccc2c(=O)cc(-c3nn[nH]n3)oc12)c1ccc(OCCCCc2ccccc2)cc1 [Pranlukast]
inhibition of FAPP2 transfer activity (FAPP2-HIS-SUMO-C-212; [3]): 90%

CCOc1cc(CC(=O)N[C@@H](CC(C)C)c2ccccc2N2CCCCC2)ccc1C(=O)O [Repaglinide]
inhibition of FAPP2 transfer activity (FAPP2-FL-SUMO-HIS): 50%

Cc1cc(OCCCS(C)(=O)=O)cc(C)c1-c1cccc(COc2ccc3c(c2)OCC3CC(=O)O)c1 (centres unmarked) [TAK-875]
effect on FAPP2-mediated GlcCer transfer (FAPP2-HIS-SUMO-C-212; 100 uM, FAPP2 at 0.5 uM, measured for 15 mins): significantly reduced

CCSc1ccc2c(c1)N(CCCN1CCN(C)CC1)c1ccccc1S2 [Thiethylperazine]
inhibition of FAPP2 transfer activity (FAPP2-HIS-SUMO-C-212; [3]): 60%

COc1cc(C(=O)NS(=O)(=O)c2ccccc2C)ccc1Cc1cn(C)c2ccc(NC(=O)OC3CCCC3)cc12 [Zafirlukast]
inhibition of FAPP2 transfer activity (FAPP2-HIS-SUMO-C-212; [3]): 90%

O=c1oc2ccccc2c(O)c1Cc1c(O)c2ccccc2oc1=O [dicoumarol]
GM3 synthesis (HeLa cells; dicoumarol 200 μM, 3 hours 3H-sphingosine pulse): strongly inhibited | intra-Golgi progression of VSVG [2]: suppressed
